System: angioedema in CSU patients
Experiment: Phase 2 CSU study: angioedema activity score over 7 days (AAS7)
Assay type: in vivo, human
Settings: 400 mg BID; for AAS7 % Change difference for rilzabrutinib vs. placebo LS Mean (95% CI) / AAS7 % Change from baseline LS Mean (SE) / AAS7 Change difference for rilzabrutinib vs. placebo LS Mean (95% CI) / AAS7 Change from baseline LS Mean (SE) / AAS7 Post-baseline Mean (SD) / AAS7 = 0, Non-responder n (%) / AAS7 = 0, OR (95% CI) for rilzabrutinib vs. placebo / AAS7 = 0, RRD (%) for rilzabrutinib vs. placebo (95% CI) / Participants with AAS7 = 0, Responder n (%): angioedema at baseline; for Non-responder n (%), AAS7 = 0 / RRD (%) for rilzabrutinib vs. placebo (95% CI), AAS7 = 0 / Responder n (%), AAS7 = 0 / OR (95% CI) for rilzabrutinib vs. placebo, AAS7 = 0: outlier removed
Description: The study comprises a 12 week, randomized, double-blind, placebo-controlled, multi-center, dose-ranging efficacy and safety phase, followed by a 40 week open label extension (OLE) phase (see FIG. 1). The study consists of three phases and an optional OLE phase. […] The weekly angioedema activity score (AAS7) was proposed as a tertiary endpoint. […] Patients were to complete the AAS using the e-diary. The e-diary was to be used once daily on the same time of each day recording of participant's answers to the angioedema activity score over 7 days (AAS7) questionnaire.

CC(C)(C=C(C#N)C(=O)N1CCC[C@@H](n2nc(-c3ccc(Oc4ccccc4)cc3F)c3c(N)ncnc32)C1)N1CCN(C2COC2)CC1 [rilzabrutinib, (R)-2-[3-[4-amino-3-(2-fluoro-4-phenoxy-phenyl)pyrazolo[3,4-d]pyrimidin-1-yl]piperidine-1-carbonyl]-4-methyl-4-[4-(oxetan-3-yl)piperazin-1-yl]pent-2-enenitrile]
AAS7 % Change difference for rilzabrutinib vs. placebo LS Mean (95% CI) (Week 1, ITT): −40.37 (−70.92, −9.83) % | AAS7 % Change from baseline LS Mean (SE) (Week 1, ITT): −60.34 (9.85) % | AAS7 Change difference for rilzabrutinib vs. placebo LS Mean (95% CI) (Week 1, ITT): −9.84 (−22.84, 3.16) | AAS7 Change from baseline LS Mean (SE) (Week 1, ITT): −24.34 (4.19) | AAS7 Post-baseline Mean (SD) (Week 1, ITT): 23.35 (30.86) | Non-responder n (%), AAS7 = 0 (Week 1, omalizumab-naïve): 16 (45.7) n (%) | RRD (%) for rilzabrutinib vs. placebo (95% CI), AAS7 = 0 (Week 1, omalizumab-naïve): 23.4 % | Responder n (%), AAS7 = 0 (Week 1, omalizumab-naïve): 19 (54.3) n (%) | AAS7 % Change difference for rilzabrutinib vs. placebo LS Mean (95% CI) (Week 1, omalizumab-naïve): −42.17 (−75.41, −8.93) % | AAS7 = 0, Non-responder n (%) (Week 1, omalizumab-naïve): 15 (57.7) n (%) | AAS7 = 0, OR (95% CI) for rilzabrutinib vs. placebo (Week 1, omalizumab-naïve): 20.850 | AAS7 = 0, RRD (%) for rilzabrutinib vs. placebo (95% CI) (Week 1, omalizumab-naïve): 35.1 % | AAS7 Change difference for rilzabrutinib vs. placebo LS Mean (95% CI) (Week 1, omalizumab-naïve): −9.69 (−23.74, 4.37) | AAS7 Change from baseline LS Mean (SE) (Week 1, omalizumab-naïve): −23.46 (4.42) | AAS7 Post-baseline Mean (SD) (Week 1, omalizumab-naïve): 25.15 (31.33) | Participants with AAS7 = 0, Responder n (%) (Week 1, omalizumab-naïve): 11 (42.3) n (%) | AAS7 % Change difference for rilzabrutinib vs. placebo LS Mean (95% CI) (Week 2, ITT): −8.15 (−40.12, 23.82) % | AAS7 % Change from baseline LS Mean (SE) (Week 2, ITT): −49.52 (12.60) % | AAS7 Change difference for rilzabrutinib vs. placebo LS Mean (95% CI) (Week 2, ITT): −5.96 (−17.22, 5.30) | AAS7 Change from baseline LS Mean (SE) (Week 2, ITT): −26.86 (4.43) | AAS7 Post-baseline Mean (SD) (Week 2, ITT): 22.75 (28.74) | Non-responder n (%), AAS7 = 0 (Week 2, omalizumab-naïve): 18 (51.4) n (%) | OR (95% CI) for rilzabrutinib vs. placebo, AAS7 = 0 (Week 2, omalizumab-naïve): 1.366 | RRD (%) for rilzabrutinib vs. placebo (95% CI), AAS7 = 0 (Week 2, omalizumab-naïve): 8.2 % | Responder n (%), AAS7 = 0 (Week 2, omalizumab-naïve): 17 (48.6) n (%) | AAS7 % Change difference for rilzabrutinib vs. placebo LS Mean (95% CI) (Week 2, omalizumab-naïve): −9.47 (−44.02, 25.08) % | AAS7 % Change from baseline LS Mean (SE) (Week 2, omalizumab-naïve): −46.69 (13.31) % | AAS7 = 0, Non-responder n (%) (Week 2, omalizumab-naïve): 17 (65.4) n (%) | AAS7 = 0, OR (95% CI) for rilzabrutinib vs. placebo (Week 2, omalizumab-naïve): 2.012 | AAS7 = 0, RRD (%) for rilzabrutinib vs. placebo (95% CI) (Week 2, omalizumab-naïve): 14.6 % | AAS7 Post-baseline Mean (SD) (Week 2, omalizumab-naïve): 24.57 (29.12) | Participants with AAS7 = 0, Responder n (%) (Week 2, omalizumab-naïve): 9 (34.6) n (%) | AAS7 % Change difference for rilzabrutinib vs. placebo LS Mean (95% CI) (Week 3, ITT): −7.33 (−47.50, 32.83) % | AAS7 % Change from baseline LS Mean (SE) (Week 3, ITT): −55.85 (15.71) % | AAS7 Change difference for rilzabrutinib vs. placebo LS Mean (95% CI) (Week 3, ITT): −11.42 (−22.95, 0.12) | AAS7 Change from baseline LS Mean (SE) (Week 3, ITT): −35.57 (4.51) | AAS7 Post-baseline Mean (SD) (Week 3, ITT): 14.81 (20.54) | Non-responder n (%), AAS7 = 0 (Week 3, omalizumab-naïve): 15 (42.9) n (%) | OR (95% CI) for rilzabrutinib vs. placebo, AAS7 = 0 (Week 3, omalizumab-naïve): 2.357 | RRD (%) for rilzabrutinib vs. placebo (95% CI), AAS7 = 0 (Week 3, omalizumab-naïve): 21.6 % | Responder n (%), AAS7 = 0 (Week 3, omalizumab-naïve): 20 (57.1) n (%) | AAS7 % Change difference for rilzabrutinib vs. placebo LS Mean (95% CI) (Week 3, omalizumab-naïve): −5.01 (−48.85, 38.83) % | AAS7 % Change from baseline LS Mean (SE) (Week 3, omalizumab-naïve): −52.68 (16.72) % | AAS7 = 0, Non-responder n (%) (Week 3, omalizumab-naïve): 15 (57.7) n (%) | AAS7 = 0, OR (95% CI) for rilzabrutinib vs. placebo (Week 3, omalizumab-naïve): 2.703 | AAS7 = 0, RRD (%) for rilzabrutinib vs. placebo (95% CI) (Week 3, omalizumab-naïve): 20.8 % | AAS7 Post-baseline Mean (SD) (Week 3, omalizumab-naïve): 15.95 (20.90) | Participants with AAS7 = 0, Responder n (%) (Week 3, omalizumab-naïve): 11 (42.3) n (%) | AAS7 % Change from baseline LS Mean (SE) (Week 4, ITT): −60.60 (13.93) % | AAS7 Change difference for rilzabrutinib vs. placebo LS Mean (95% CI) (Week 4, ITT): −12.73 (−23.88, −1.58) | AAS7 Change from baseline LS Mean (SE) (Week 4, ITT): −35.34 (4.34) | AAS7 Post-baseline Mean (SD) (Week 4, ITT): 13.70 (17.64) | Non-responder n (%), AAS7 = 0 (Week 4, omalizumab-naïve): 17 (48.6) n (%) | OR (95% CI) for rilzabrutinib vs. placebo, AAS7 = 0 (Week 4, omalizumab-naïve): 1.361 | RRD (%) for rilzabrutinib vs. placebo (95% CI), AAS7 = 0 (Week 4, omalizumab-naïve): 7.4 % | Responder n (%), AAS7 = 0 (Week 4, omalizumab-naïve): 18 (51.4) n (%) | AAS7 % Change difference for rilzabrutinib vs. placebo LS Mean (95% CI) (Week 4, omalizumab-naïve): −28.19 (−67.14, 10.77) % | AAS7 % Change from baseline LS Mean (SE) (Week 4, omalizumab-naïve): −58.12 (14.75) % | AAS7 = 0, Non-responder n (%) (Week 4, omalizumab-naïve): 15 (57.7) n (%)
